Values after ≈ are worked out from the molar mass of the structure shown. Active and inactive are the calls of the source. The calls are words filed in the database; no cut-off is given here.
Key:
Staphylococcus aureus [1] = assay: Antibacterial activity against methicillin-resistant Staphylococcus aureus BNCC 337371 infected in Kunming mouse lung assessed as reduction on alveolar diaphragm thickening at 40 mg/kg,ip measured after 7 days by hematoxylin and eosin staining based light microscopic analysis; type: functional, organism-based; settings: time 7.0 day
Staphylococcus aureus [2] = assay: Antibacterial activity against methicillin-resistant Staphylococcus aureus BNCC 337371 infected in Kunming mouse lung assessed as reduction on lymphocyte infiltration at 40 mg/kg,ip measured after 7 days by hematoxylin and eosin staining based light microscopic analysis; type: functional, organism-based; settings: time 7.0 day
Staphylococcus aureus [3] = assay: Antibacterial activity against methicillin-resistant Staphylococcus aureus BNCC 337371 infected in Kunming mouse assessed as reduction on bacterial growth by measuring survival rate at ip dosed measured after 7 days by Bliss method; type: functional; settings: BNCC 337371, 168 h, time 7 day
Staphylococcus aureus [4] = assay: Antibacterial activity against Staphylococcus aureus ATCC 25923 assessed as bacterial growth inhibition incubated for 18 to 24 hrs by microtiter dilution method; type: functional; settings: time 18-24 hrs
Staphylococcus aureus [5] = assay: Antibacterial activity against methicillin-resistant Staphylococcus aureus BNCC 337371 infected in Kunming mouse kidney assessed as reduction on bacterial growth at 40 mg/kg,ip dosed measured after 7 days by 10-fold dilution method; type: functional; settings: time 7 day
Staphylococcus aureus [6] = assay: Antibacterial activity against Staphylococcus aureus ATCC 25923 assessed as reduction on bacterial count at 6X MIC incubated for 24 hrs by time killing assay; type: functional
Escherichia coli = assay: Antibacterial activity against Escherichia coli CICC 10389 assessed as bacterial growth inhibition incubated for 18 to 24 hrs by microtiter dilution method; type: functional; settings: time 18-24 hrs
Bacillus subtilis = assay: Antibacterial activity against Bacillus subtilis assessed as bacterial growth inhibition incubated for 18 to 24 hrs by microtiter dilution method; type: functional; settings: time 18-24 hrs
Staphylococcus aureus [7] = assay: Antibacterial activity against methicillin-resistant Staphylococcus aureus BNCC 337371 infected in Kunming mouse lung assessed as reduction on alveolar diaphragm thickening at 15 mg/kg,ip measured after 7 days by hematoxylin and eosin staining based light microscopic analysis; type: functional, organism-based; settings: time 7.0 day
Staphylococcus aureus [8] = assay: Antibacterial activity against methicillin-resistant Staphylococcus aureus BNCC 337371 infected in Kunming mouse liver assessed as reduction on bacterial growth at 40 mg/kg,ip dosed measured after 7 days by 10-fold dilution method; type: functional, organism-based; settings: time 7.0 day
[9] = test system: Staphylococcus epidermidis; assay: Antibacterial activity against methicillin-resistant Staphylococcus epidermidis ATCC 51625 assessed as bacterial growth inhibition incubated for 18 to 24 hrs by microtiter dilution method; type: functional; settings: time 18-24 hrs
Staphylococcus aureus [10] = assay: Antibacterial activity against methicillin-resistant Staphylococcus aureus BNCC 337371 infected in Kunming mouse lung assessed as reduction on neutrophil infiltration at 15 mg/kg,ip measured after 7 days by hematoxylin and eosin staining based light microscopic analysis; type: functional, organism-based; settings: time 7.0 day
Staphylococcus aureus [11] = assay: Antibacterial activity against methicillin-resistant Staphylococcus aureus BNCC 337371 infected in Kunming mouse lung assessed as reduction on neutrophil infiltration at 40 mg/kg,ip measured after 7 days by hematoxylin and eosin staining based light microscopic analysis; type: functional, organism-based; settings: time 7.0 day
Staphylococcus aureus [12] = assay: Antibacterial activity against methicillin-resistant Staphylococcus aureus BNCC 337371 infected in Kunming mouse lung assessed as reduction on bacterial growth at 15 mg/kg,ip dosed measured after 7 days by 10-fold dilution method; type: functional; settings: time 7 day
Staphylococcus aureus [13] = assay: Antibacterial activity against methicillin-resistant Staphylococcus aureus BNCC 337371 infected in Kunming mouse lung assessed as reduction on lymphocyte infiltration at 15 mg/kg,ip measured after 7 days by hematoxylin and eosin staining based light microscopic analysis; type: functional, organism-based; settings: time 7.0 day
Staphylococcus aureus [14] = assay: Antibacterial activity against methicillin-resistant Staphylococcus aureus BNCC 337371 assessed as reduction on bacterial count at 6X MIC incubated for 24 hrs by time killing assay; type: functional
Staphylococcus aureus [15] = assay: Antibacterial activity against methicillin-resistant Staphylococcus aureus BNCC 337371 assessed as bacterial growth inhibition incubated for 18 to 24 hrs by microtiter dilution method; type: functional; settings: time 18-24 hrs
Staphylococcus aureus [16] = assay: Antibacterial activity against methicillin-resistant Staphylococcus aureus BNCC 337371 infected in Kunming mouse lung assessed as reduction on bacterial growth at 40 mg/kg,ip dosed measured after 7 days by 10-fold dilution method; type: functional; settings: time 7 day
Enterococcus faecalis = assay: Antibacterial activity against Enterococcus faecalis assessed as bacterial growth inhibition incubated for 18 to 24 hrs by microtiter dilution method; type: functional; settings: time 18-24 hrs

## C=C[C@]1(C)C[C@@H](OC(=O)CSc2nc(C)c(C(=O)OCC)c(C)n2)[C@]2(C)[C@H](C)CC[C@]3(CCC(=O)[C@H]32)[C@@H](C)[C@@H]1O
Staphylococcus aureus [1]
  Activity: Active
Staphylococcus aureus [2]
  Activity: Active
Staphylococcus aureus [3]
  ED50: 16.1 mg/kg
Staphylococcus aureus [4]
  MIC: ≤ 0.0156 µg/mL
Staphylococcus aureus [5]
  Activity: 3.24 log10CFU/ml
Staphylococcus aureus [6]
  Activity: 3.62 log10CFU/ml
Escherichia coli
  MIC: > 16 µg/mL
Bacillus subtilis
  MIC: 4 µg/mL (≈ 6.98 µM)
Staphylococcus aureus [7]
  Activity: Active
Staphylococcus aureus [8]
  Activity: Active
[9]
  MIC: ≤ 0.0156 µg/mL
Staphylococcus aureus [10]
  Activity: Active
Staphylococcus aureus [11]
  Activity: Active
Staphylococcus aureus [12]
  Activity: 2.97 log10CFU/ml
Staphylococcus aureus [13]
  Activity: Active
Staphylococcus aureus [14]
  Activity: 2.44 log10CFU/ml
Staphylococcus aureus [15]
  MIC: ≤ 0.0156 µg/mL
Staphylococcus aureus [16]
  Activity: 4.95 log10CFU/ml
Enterococcus faecalis
  MIC: > 16 µg/mL

Source: ChEMBL document CHEMBL5120841, “Discovery of novel pleuromutilin derivatives as potent antibacterial agents” (2022)
